The values below are quoted from earlier work in patent US20210298340A1, “Cannabis-Infused Product with Extended Cannabinoid Profile User Experience” (HEXO Operations Inc., priority 2018, published 2021).

One data set has as its system skin. As to conditions: 3 macro-emulsions >1000 nm and 3 nano-emulsions <100 nm.
The conditions of data set [1]: rats; solution in MCT oil or emulsion with droplet size 160 nm or 710 nm.
For data set [2] the following is noted: dogs; emulsion with droplet size 119 nm or 52 nm.

Molecules are shown by their SMILES. Read-outs that look alike come from different tables or passages of the source.

Turning to `CCCCNc1ccc(C(=O)OCCN(C)C)cc1` [tetracaine], in the data set on skin, the “influence of emulsion droplet size on in vitro dermal and transdermal skin penetration” value was “no influence”.

`COc1nc(C(Cl)(Cl)Cl)c(Cl)c(OC)c1Cl` [penclomedine]: the bioavailability entry in data set [1] is listed as “comparable”.

As for `CCCCN(CCCC)CCC(O)c1cc2c(Cl)cc(Cl)cc2c2cc(C(F)(F)F)ccc12` (stereo not drawn) [halofantrine], the bioavailability result in data set [2] is “comparable”.
